Source: patent US11584727B2, “2-thioxothiazolidin-4-one derivatives active as transthyretin ligands and uses thereof” (BSIM Therapeutics, S.A., priority 2014, dated 2023)

Legend:
[1] = molecular target: Val122Ile transthyretin (V122I-TTR) (Homo sapiens, UniProt P02766, V142I); experiment: V122I-TTR amyloid fibril formation assay (turbidimetry, acid-induced); assay type: biochemical; conditions: pH 4.4, 72 hours; for Fibril Formation (%): V122I-TTR 3.6 μM, 37° C.; for IC50: V122I-TTR fixed at 3.6 μM, ten compound concentrations
Procedure: (§1) The first set of evaluations is based on a fast, stagnant fibril formation assay that is used for the early screening of compounds, be they virtual screening hits or newly synthesized analogues. In this assay, a solution of the compound under test at 1.8, 3.6 or 7.2 μM is added to a solution of TTR at 3.6 μM, so that there is enough compound to bind to either one or both of TTR's binding sites. The pH of the resulting solution is then lowered to 4.4 to promote amyloidogenesis. The process of amyloid fibril formation over time is assessed by turbidimetry measurements at three different wavelengths (405, 450 and 490 nm, or at 550, 600 and 650 nm when the compound absorbs light at the previous wavelengths), using a spectrophotometer endowed with a BioTek microplate reader. The extent of fibril formation of each mixture is determined by normalizing a sample with the protein (TTR), in absence of compounds, which, at the end of 72 hours, represents 100% of amyloid fibril formation. In each experiment, each compound concentration is tested in triplicate. For each compound concentration and incubation time, the arithmetic mean of the triplicate experiments is calculated, as well as the arithmetic mean of the three measured wavelengths. High activity can be defined as a percentage of fibril formation below 10% at compound concentration 7.2 μM (TTR:compound stoichiometry 1:2) and below 40% at 3.6 μM (TTR:compound stoichiometry 1:1).
(§2) Purchased virtual screening hits and all synthesized (optimization) derivatives were dissolved in DMSO to a final concentration of 10.8 mM to provide a primary stock solution. Several secondary stock solutions were prepared in DMSO by dilution of the primary stock solution and the concentrations were chosen depending on the effectiveness of the compound in inhibiting the TTR amyloid fibril formation.
(§3) The fibril formation assay was adapted to run in a high-throughput screening mode. For this purpose, 96-well microplates were used with a final assay volume of 100 μL.
(§4) One microLitre (μL) of different compound secondary stock solutions was added to 50 μL of a 7.2 μM wild type TTR (WT-TTR) or Val122Ile-TTR (V122I-TTR) solutions in 10 miliMolar (mM) sodium phosphate buffer, 100 mM KCl and 1 mM EDTA, pH 7.2, previously dialyzed against the same buffer solution. After 30 minutes of incubation at room temperature, the pH of the mixture was lowered to 4.4 with 49 μL of 200 mM acetate buffer, 100 mM KCl and 1 mM EDTA, pH 4.3.
(§5) The mixtures were incubated at 37° C. during 72 hours. Turbidity at 405 nm, 450 nm and 490 nm (or at 550, 600 and 650 nm when the test compound absorbs light at the previous wavelengths) was measured over time (0, 17, 24, 41, 48, 65 and 72 hours) using a BioTek Microplate Spectrophotometer to evaluate the extent of fibril formation. Immediately before the turbidity measurements, the mixtures were gently shacked during 1 minute to homogenize well and not damage the formed amyloid aggregates and fibrils. The final turbidity was calculated as an average of the three wavelengths measured.
In addition, control samples containing TTR with no inhibitor and 1% DMSO, as well as inhibitor in absence of TTR were tested and analyzed.
The extent of amyloid fibril formation data was normalized to TTR in the absence of inhibitor, assigned to be 100% fibril formation (or 0% amyloid inhibition) at the end of the experiment.
The extent of amyloid fibril formation throughout 72 hours was determined as described in the “Evaluation of amyloid inhibition in vitro” subsection above.
IC50 values were calculated from the inhibition curves obtained by fitting the values by a nonlinear curve method using the OriginPro7 (OriginLab Corporation, USA).

[2] = molecular target: T1, wild type transthyretin (WT-TTR) (Homo sapiens, UniProt P02766); experiment: WT-TTR amyloid fibril formation assay (turbidimetry, acid-induced); assay type: biochemical; conditions: pH 4.4, 72 hours; for Fibril Formation (%): WT-TTR 3.6 μM, 1:1 TTR-compound stoichiometry, 37° C., normalized to no-compound control (100%); for IC50: WT-TTR fixed at 3.6 μM, ten compound concentrations
T1 construct: made in house; host or cells: E. coli BL21 (DE3), pET23a plasmid
Procedure: as §1
The in vitro activity of the compounds was assessed through a biochemical assay based on turbidimetry measurements, in which fibril formation is induced by acidification of the solution to pH 4.4 after incubation with the hit compound to be tested. The amount of amyloid fibrils formed is then monitored throughout 72 hours. Further details on this assay are provided in the “Evaluation of amyloid inhibition in vitro” subsection in “Materials and Methods”.
Experimental evaluation of the in vitro activity of virtual screening hits against amyloid fibril formation by TTR was carried out using a biochemical assay based on turbidimetry measurements. In this assay, fibril formation is induced by acidification of the solution to pH 4.4 after incubation with the hit compound to be tested. The amount of amyloid fibrils formed is monitored over 72 hours. Further details on the assay are provided in the “Evaluation of amyloid inhibition in vitro” subsection below.
as §2, §3, §4
as §5, with “fibrils.” for “fibrils. The final turbidity was calculated as an average of the three wavelengths measured.”

Compound | Fibril Formation (%) [1] [%] | IC50 [1] [µM] | Fibril Formation (%) [2] [%] | IC50 [2] [µM] | melting point [°C] | inhibitory activity against TTR amyloid fibril formation compared with reference compounds (in words) ([2]; TTR 3.6 μM)
O=C(O)CN1C(=O)/C(=C/c2cc(Cl)cc(Cl)c2)SC1=S [AT50-A05, (Z)-3-hydroxycarbonylmethyl-5-(3′,5′-dichlorophenylmethylidene)-2-thioxothiazolidin-4-one] | 28 | 2.32 | 17 | 1.62 ± 0.13 | 272 to 273 | 
Cc1cc(/C=C2\SC(=S)N(CC(=O)O)C2=O)cc(C)c1O [AT50-A17, (Z)-3-hydroxycarbonylmethyl-5-(4′-hydroxy-3′,5′-dimethylphenylmethylidene)-2-thioxothiazolidin-4-one] | 51 | 3.16 | 27 | 2.37 ± 0.47 | 261 to 263 | 
O=C(O)CCCN1C(=O)/C(=C/c2cc(F)c(O)c(F)c2)SC1=S [AT50-C09, (Z)-5-(3′,5′-difluoro-4′-hydroxyphenylmethylidene)-3-(3′-hydroxycarbonylpropyl)-2-thioxothiazolidin-4-one] | 48 | 3.19 | 33 | 2.45 ± 0.35 | 207 to 209 | 
O=C(O)CCN1C(=O)/C(=C/c2cc(F)c(O)c(F)c2)SC1=S [AT50-C13, (Z)-5-(3′,5′-difluoro-4′-hydroxyphenylmethylidene)-3-(2′-hydroxycarbonylethyl)-2-thioxothiazolidin-4-one] | 36 | 2.6 | 32 | 2.31 ± 0.45 | 216 to 217 | 
O=C(O)CCN1C(=O)/C(=C/c2cc(Cl)cc(Cl)c2)SC1=S [AT50-C14, (Z)-3-(2′-hydroxycarbonylethyl)-5-(3′,5′-dichlorophenylmethylidene)-2-thioxothiazolidin-4-one] | 55 | 4.37 | 26 | 1.95 ± 0.26 | 245 to 247 | 
Cc1cc(/C=C2\SC(=S)N(CCC(=O)O)C2=O)cc(C)c1O [AT50-C16, (Z)-3-(2′-hydroxycarbonylethyl)-5-(4′-hydroxy-3′,5′-dimethylphenylmethylidene)-2-thioxothiazolidin-4-one] | 41 | 2.71 | 24 | 2.29 ± 0.13 | 253 to 254 | 

The remaining lines, values ahead:

Fibril Formation (%) [1] [%] | IC50 [1] [µM] | Fibril Formation (%) [2] [%] | IC50 [2] [µM] | melting point [°C] | inhibitory activity against TTR amyloid fibril formation compared with reference compounds (in words) ([2]; TTR 3.6 μM) | Compound
91 | 7.8 | 44 | 2.88 ± 0.24 | 225 to 227 |  | O=C(O)CN1C(=O)/C(=C/c2cc(F)cc(F)c2)SC1=S [AT50-A12, (Z)-3-hydroxycarbonylmethyl-5-(3′,5′-difluorophenylmethylidene)-2-thioxothiazolidin-4-one]
37 | 2.46 | 27 | 1.87 ± 0.16 | 247 to 249 |  | O=C(O)CCCN1C(=O)/C(=C/c2cc(Cl)c(O)c(Cl)c2)SC1=S [AT50-C10, (Z)-5-(3′,5′-dichloro-4′-hydroxyphenylmethylidene)-3-(3′-hydroxycarbonylpropyl)-2-thioxothiazolidin-4-one]
66 | 4.52 | 26 | 2.43 ± 1.25 | 250 to 252 |  | Cc1cc(/C=C2\SC(=S)N(CCCC(=O)O)C2=O)cc(C)c1O [AT50-C11, (Z)-5-(4′-hydroxy-3′,5′-dimethylphenylmethylidene)-3-(3′-hydroxycarbonylpropyl)-2-thioxothiazolidin-4-one]
17 | 1.62 | 7 | 1.03 ± 0.1 | 259 to 260 | superior to that of 2OH-PCB80 | O=C(O)CCN1C(=O)/C(=C/c2cc(Cl)c(O)c(Cl)c2)SC1=S [AT50-C15, (Z)-3-(2′-hydroxycarbonylethyl)-5-(3′,5′-dichloro-4′-hydroxyphenylmethylidene)-2-thioxothiazolidin-4-one]
